± gives the expanded uncertainty stated by the source.
Experiments:
[1] = Molar enthalpy of transition or fusion; conditions: Crystal; DSC
[2] = Crystal; DTA

Molar enthalpy of transition or fusion [1]: 15.4 ± 0.693 kcal/mol
Normal melting temperature [2]: 190.09 ± 1.1 °C
SMILES: CCCCCCOC(=O)NC(=N)c1ccc(NCc2nc3cc(C(=O)N(CCC(=O)OCC)c4ccccn4)ccc3n2C)cc1.CS(=O)(=O)O [Dabigatran etexilate mesylate]
